“And” between values parts separate entries of the source, which are not always exact repeats. Equal entries are not always repeated.
Key:
Type in all cases: physicochemical
[1] = Control lenses: DMPC loading of Example 3 lenses (enzymatic assay); settings: control lenses of Example 3, no release test, n=5
Text: Lenses are demolded and extracted with an organic solvent (e.g., isopropanol, 1-propanol, Dowanol, methyl ethyl ketone (MEK), or the like) and then dipped in a Dowanol PM (or alternatively MEK or 1-propanol) solution of polyacrylic acid (0.1% by weight, pH ˜2.0). The lenses are then rinsed for 60 seconds in water and then dipped in a Dowanol (or alternatively MEK or 1-propanol) solution of 1,2-dimyristoyl-sn-glycero-3-phosphocholine (DMPC, 1%) for about 60 to about 100 seconds. The lenses are then rinsed in water for 120 seconds and packaged in PBS. Lenses are then autoclaved for 30 min at 121° C. The second test is designed to try to maximize the amount of DM PC in ATF by leaving the lens in ATF for the entire release test. A single lens is placed in 1 mL ATF and incubated at 35° C. for 8 hrs. Every 30 min, the sample is vortexed and then returned to the incubator. At the conclusion of 8 hrs, the lens is removed from the ATF and the ATF is submitted for analysis. All analysis is done using an enzymatic assay method. A control set of lenses is submitted to confirm loading of the lenses with DMPC. This control sample set (n=5) show an average loading of 200 μg DMPC per lens.

[2] = First release test: lens in artificial tear fluid (ATF) refreshed every 30 min, DMPC left in lens; settings: first test: 500 μL ATF replaced every 30 min, 35° C., 8 hrs, n=5
Procedure: Lenses (as prepared in Example 3) are subjected to one of two release tests in artificial tear fluid (ATF) prepared without any phospholipids and having a composition shown in Table 1. The first test is designed to maximize release of DMPC from the lens by refreshing the ATF frequently. A single lens is placed in 500 μL of ATF and incubated at 35° C. for 8 hrs. Every 30 min, the sample is vortexed, the ATF is withdrawn, a fresh 500 μL aliquot of ATF is added to the lens, the sample is again vortexed, and the sample is returned to the incubator. At the conclusion of 8 hrs, the lenses are removed from ATF, placed in 1 mL clean PBS, and submitted for analysis of DMPC content. The second test is designed to try to maximize the amount of DM PC in ATF by leaving the lens in ATF for the entire release test. A single lens is placed in 1 mL ATF and incubated at 35° C. for 8 hrs. Every 30 min, the sample is vortexed and then returned to the incubator. At the conclusion of 8 hrs, the lens is removed from the ATF and the ATF is submitted for analysis. All analysis is done using an enzymatic assay method.

[3] = Second release test: lens left in ATF for 8 hrs, DMPC in ATF; settings: second test: 1 mL ATF, 35° C., 3 pooled ATF samples, just below dynamic range of the assay
Procedure: Lenses (as prepared in Example 3) are subjected to one of two release tests in artificial tear fluid (ATF) prepared without any phospholipids and having a composition shown in Table 1. The second test is designed to try to maximize the amount of DM PC in ATF by leaving the lens in ATF for the entire release test. A single lens is placed in 1 mL ATF and incubated at 35° C. for 8 hrs. Every 30 min, the sample is vortexed and then returned to the incubator. At the conclusion of 8 hrs, the lens is removed from the ATF and the ATF is submitted for analysis. All analysis is done using an enzymatic assay method. Three ATF samples are pooled to increase the DMPC signal. […] The value for the 3 pooled samples is just below the dynamic range of the assay, making confidence in the quantified DMPC levels difficult yet still providing evidence of DMPC release from the lenses.

[4] = Total content of radio-labeled DMPC in lenses (extraction, scintillation counting); settings: radio labeled DMPC (C14) loaded from 1-propanol
Procedure: (§1) Lenses are prepared according to the procedures described in Example 3, except that DMPC used in this example is a radio labeled DMPC (C14). The radio labeled DMPC is supplied by New England Nuclear (Waltham, Mass.). Lenses are loaded with radio-labeled DMPC by dipping the lenses into a solution of the radio-labeled DMPC in 1-propanol. Loaded lenses are then subjected to release testing using artificial tear fluid (ATF) as the release media. Components listed in Table 2 are dissolved in a phosphate buffered saline solution to provide a physiologically acceptable pH and osmolality.
The DMPC content of the lenses is also measured using one of two techniques: • (1) Lenses that had previously been subjected to release testing are fully extracted and the eluate is then analyzed for DMPC content. This amount of DMPC is numerically added to the DMPC already quantified in the release media. Thus, all DMPC is accounted for, cradle-to-grave. • (2) Other lenses, not subject to release testing, are also extracted to determine initial DMPC content (total loading of DM PC in lenses).

[5] = Release of radio-labeled DMPC from lens into ATF over 24 hours (scintillation counter); settings: 1 mL ATF, radio labeled DMPC (C14)
Procedure: as §1
Release tests are conducted by placing a single lens in 1 mL of ATF and then incubating the sample for 24 hours. At specified time points of 0, 2, 4, 10, and 24 hours, small samples of release media are pulled and analyzed for DM PC content using a scintillation counter (C14 emits a weak beta particle).

[6] = Comfort agent content of Example 6 lenses (exhaustive isopropanol extraction); settings: comfort agent added to lens formulation, after autoclave
Procedure: A lens formulation is prepared as detailed in Example 3 where 1,2-dimyristoyl-sn-glycero-3-phosphocholine (DMPC) is added to the formulation at a concentration of 0.75% by weight and where the formulation solvent, 1-propanol, is reduced to 22.65% by weight. Lens curing is as described in Example 3. The lenses are demolded and then extracted in methyl ethyl ketone followed by a rinse in DI water for 56 seconds. The lenses are then dipped in a solution of polyacrylic acid (0.36% wt/vol in 1-propanol, pH-2). The lenses are then rinsed in water for 120 seconds and packaged in phosphate buffered saline. Lenses are then autoclaved for 30 minutes at 121° C. The content of comfort agents, DMPC and L-PEG, are determined as follows. Lenses are exhaustively extracted in isopropanol and the extract is tested for DMPC and N-(carbonyl-methoxypolyethylene glycol-2000)-1,2-disteaoyl-sn-glycero-3-phosphoethanolamine, sodium salt (L-PEG-2000) content. Lenses contain on average 30 μg DMPC and 10 μg L-PEG-2000 per lens.

[7] = Release of DMPC from pooled Example 6 lenses into ATF, 24 hours, HPLC; settings: pooled lenses (35 lenses in 3.5 mL ATF and 50 lenses in 5 mL ATF), 37° C.
Procedure: The release profile of contact lenses with comfort agents (DMPC and L-PEG) are determined as follows. Lenses are placed in release media (artificial tear fluid (ATF) as described in Example 4) for release testing. Lenses are pooled (35 lenses in 3.5 mL ATF and 50 lenses in 5 mL ATF) and then gently agitated at 37° C. for 24 hours. At the conclusion of the 24-hour release study, the lenses are removed from the ATF. The remaining ATF is then transferred to centrifuge tubes and dried overnight under vacuum in a centrifugal evaporator.
The dried residue from the ATF is then resuspended in 1-propanol (1 mL 1-propanol for each original 5 mL ATF) using sonication to assist in resuspension. The resulting solution is analyzed for presence of DMPC using HPLC.

## CCCCCCCCCCCCCC(=O)OC[C@H](COP(=O)([O-])OCC[N+](C)(C)C)OC(=O)CCCCCCCCCCCCC [DMPC, 1,2-dimyristoyl-sn-glycero-3-phosphocholine]
[1]
  average loading of DMPC per lens: 200 μg DMPC per lens
[2]
  average DMPC content of lens after release: 177 μg DMPC per lens
[3]
  DMPC in the ATF equivalent per lens: 6 μg DM PC per lens
[4]
  total DMPC content of the lenses: 32.1±2.7 micrograms of DMPC per lens
[5]; 0-24 hours
  DMPC release order: first order
[5]; 24-hour test period, eight samples
  average cumulative DMPC release from the lens: 1.3 µg
[6]
  average content per lens: 30 μg per lens
[7]
  DMPC in ATF after release: 0.48 μg per mL ATF and 0.69 μg per mL ATF

## N-(carbonyl-methoxypolyethylene glycol-2000)-1,2-distearoyl-sn-glycero-3-phosphoethanolamine sodium salt [L-PEG-2000]
[6]
  average content per lens: 10 μg per lens
